Experimental data: patent publication US7829563B2, “Aminoamides as orexin antagonists” (Hoffmann-La Roche Inc., priority 2007, dated 2010)

The molecules below were run against T1, human orexin-2 (hOX2) receptors (Homo sapiens, UniProt O43614) (assay: Intracellular Ca2+ mobilization assay (FLIPR), antagonism of orexin-A). Settings: CHO(dHFr−) cells stably expressing hOX2; orexin-A at EC80 as agonist; Kb=IC50/(1+[A]/EC50); read-out: Kb (μM) OX2R (human).
T1 construct: expressed in transfected cells
T1 sequence (O43614 1-444): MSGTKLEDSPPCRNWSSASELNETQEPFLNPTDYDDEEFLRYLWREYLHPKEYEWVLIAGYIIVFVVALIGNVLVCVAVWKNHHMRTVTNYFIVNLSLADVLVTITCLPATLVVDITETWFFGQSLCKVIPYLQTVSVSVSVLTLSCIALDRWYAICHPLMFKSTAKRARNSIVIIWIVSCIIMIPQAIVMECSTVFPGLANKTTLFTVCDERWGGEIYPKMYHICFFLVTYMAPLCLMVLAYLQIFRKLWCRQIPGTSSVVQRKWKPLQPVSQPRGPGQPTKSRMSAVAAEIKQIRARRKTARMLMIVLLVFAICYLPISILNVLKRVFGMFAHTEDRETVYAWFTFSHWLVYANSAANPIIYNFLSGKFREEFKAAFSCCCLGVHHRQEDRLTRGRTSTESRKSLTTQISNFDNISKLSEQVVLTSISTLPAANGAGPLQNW
Assay type: cell-based
In short: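 Fluo-4-loaded CHO(dHFr−) cells stably expressing hOX2 were pre-incubated 25 min at 37° C with antagonist (11 concentrations, 0.0001-10 μM), then stimulated with orexin-A at daily-determined EC80. Peak FLIPR fluorescence was fitted to the Hill equation for IC50, and Kb was derived as IC50/(1+[A]/EC50).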

SMILES	Kb [µM]
CNC(=O)[C@H](N[C@@H](CCc1ccc(Cl)cc1)c1ccc(OC)c(OC)c1)c1ccccc1 (single isomer, unassigned) [Example 140]	0.0014
CNC(=O)[C@H](N[C@@H](CCc1ccc(C(F)(F)F)cc1)c1sc(C)nc1C)c1ccc(F)cc1 [Example 116, (R)-2-[(S)-1-(2,4-Dimethyl-thiazol-5-yl)-3-(4-trifluoromethyl-phenyl)-propylamino]-2-(4-fluoro-phenyl)-N-methyl-acetamide]	0.0061
CNC(=O)[C@H](N[C@@H](CCc1ccc(C(F)(F)F)nc1)c1cc(C)ccc1F)c1ccc(F)cc1 [Example 107, (R)-2-[(S)-1-(2-Fluoro-5-methyl-phenyl)-3-(6-trifluoromethyl-pyridin-3-yl)-propylamino]-2-(4-fluoro-phenyl)-N-methyl-acetamide]	0.0124
CNC(=O)[C@H](N[C@@H](CCc1ccc(C(F)(F)F)nc1)c1ccc(Cl)c(C)c1)c1ccccc1 (racemic) [Example 244, (S,R)-2-[(R,S)-1-(4-Chloro-3-methyl-phenyl)-3-(6-trifluoromethyl-pyridin-3-yl)-propylamino]-N-methyl-2-phenyl-acetamide]	0.0145
CNC(=O)C(NC(CCc1ccc(C(F)(F)F)cc1)c1cc(C(C)C)no1)c1ccccc1 (stereo not shown) [Example 92, 2-[1-(3-Isopropyl-isoxazol-5-yl)-3-(4-trifluoromethyl-phenyl)-propylamino]-N-methyl-2-phenyl-acetamide]	0.007
CNC(=O)[C@H](N[C@@H](CCc1ccc(C(F)(F)F)nc1)c1ccc2c(c1)CCCC2)c1ccc(F)cc1 (racemic) [Example 57, (S,R)-2-(4-Fluoro-phenyl)-N-methyl-2-[(R,S)-1-(5,6,7,8-tetrahydro-naphthalen-2-yl)-3-(6-trifluoromethyl-pyridin-3-yl)-propylamino]-acetamide]	0.0093
CNC(=O)[C@H](N[C@H](CCc1cccc(C(F)(F)F)c1)c1ccc(OC)c(OC)c1)c1ccccc1 (racemic) [Example 320, (R,S)-2-[(R,S)-1-(3,4-Dimethoxy-phenyl)-3-(3-trifluoromethyl-phenyl)-propylamino]-N-methyl-2-phenyl-acetamide]	0.0021
CNC(=O)[C@H](N[C@@H](CCc1ccc(C)cc1)c1ccc(OC)c(OC)c1)c1ccccc1 (racemic) [Example 209, (S,R)-2-[(R,S)-1-(3,4-Dimethoxy-phenyl)-3-p-tolyl-propylamino]-N-methyl-2-phenyl-acetamide]	0.0024
CNC(=O)[C@H](NC(CCc1ccc(C(F)(F)F)cc1)c1ccc(OC)c(OC)c1)c1ccccc1 (single isomer, unassigned) [Example 7, (R)-2-[(S or R)-1-(3,4-Dimethoxy-phenyl)-3-(4-trifluoromethyl-phenyl)-propylamino]-N-methyl-2-phenyl-acetamide]	0.0142
CNC(=O)[C@H](N[C@@H](CCc1ccc(F)cc1)c1ccc(OC)c(OC)c1)c1ccccc1 (single isomer, unassigned) [Example 144]	0.0097
CNC(=O)[C@H](N[C@@H](CCc1cccc(C(F)(F)F)c1)c1ccc(OC)c(OC)c1)c1ccccc1 (racemic) [Example 321, (R,S)-2-[(S,R)-1-(3,4-Dimethoxy-phenyl)-3-(3-trifluoromethyl-phenyl)-propylamino]-N-methyl-2-phenyl-acetamide]	0.0028
CNC(=O)[C@H](N[C@@H](CCc1ccc(OC)cc1)c1cccnc1OC)c1ccccc1 (racemic) [Example 135, (S,R)-2-[(R,S)-3-(4-Methoxy-phenyl)-1-(2-methoxy-pyridin-3-yl)-propylamino]-N-methyl-2-phenyl-acetamide]	0.0155
CNC(=O)[C@H](N[C@@H](CCc1ccc(Cl)nc1)c1ccc(F)c(C)c1)c1ccccc1 (racemic) [Example 266, (S,R)-2-[(R,S)-3-(6-Chloro-pyridin-3-yl)-1-(4-fluoro-3-methyl-phenyl)-propylamino]-N-methyl-2-phenyl-acetamide]	0.0175
CNC(=O)[C@H](N[C@@H](CCc1ccc(C(F)(F)F)nc1)c1cccc(OC(F)F)c1)c1ccccc1 (racemic) [Example 225, (S,R)-2-[(R,S)-1-(3-Difluoromethoxy-phenyl)-3-(6-trifluoromethyl-pyridin-3-yl)-propylamino]-N-methyl-2-phenyl-acetamide]	0.0144
CNC(=O)[C@H](N[C@@H](CCc1ccc(C(F)(F)F)nc1)c1ccc(OC(F)F)c(OC)c1)c1ccc(Cl)cc1 (racemic) [Example 234, (S,R)-2-(4-Chloro-phenyl)-2-[(R,S)-1-(4-difluoromethoxy-3-methoxy-phenyl)-3-(6-trifluoromethyl-pyridin-3-yl)-propylamino]-N-methyl-acetamide]	0.013
CNC(=O)[C@H](N[C@@H](CCc1ccc(C(F)(F)F)cc1)c1cccc(C)n1)c1ccccc1 (racemic) [Example 207, (S,R)—N-Methyl-2-[(R,S)-1-(6-methyl-pyridin-2-yl)-3-(4-trifluoromethyl-phenyl)-propylamino]-2-phenyl-acetamide]	0.0079
CNC(=O)[C@@H](N[C@@H](CCc1ccc(C(F)(F)F)cc1)c1ccc(OC)c(OC)c1)c1ccc(Cl)cc1 (racemic) [Example 33, (S,R)-2-(4-Chloro-phenyl)-2-[(S,R)-1-(3,4-dimethoxy-phenyl)-3-(4-trifluoromethyl-phenyl)-propylamino]-N-methyl-acetamide]	0.009
CNC(=O)[C@H](N[C@@H](CCc1ccc(C(F)(F)F)nc1)c1ccc(OC)c(OC)c1)c1ccccc1 (racemic) [Example 171, (S,R)-2-[(R,S)-1-(3,4-Dimethoxy-phenyl)-3-(6-trifluoromethyl-pyridin-3-yl)-propylamino]-N-methyl-2-phenyl-acetamide]	0.005
CNC(=O)[C@H](N[C@@H](CCc1ccccc1)c1ccc(OC)c(OC)c1)c1ccccc1 (single isomer, unassigned) [Example 314]	0.0067
